Experiments:
human dermal fibroblasts = test: Retinoid-induced fibroblast cytotoxicity; type: cell-based; details: KBM 1.5 mM calcium, 72 hours, up to 5 μg/mL
Description: Human dermal fibroblasts are isolated from skin biopsies as described previously and grown in monolayer culture using DMEM supplemented with 10% fetal bovine serum as culture medium (see, e.g., Varani J, et al., J Clin Invest. 1994; 94; Varani J, et al., J. Invest. Dermatol. 94:717-723, 1990). Growth is at 37° C. in a humidified atmosphere containing 5% CO2 and 95% air. For experimental studies, cells are plated at 5×10^4 cells per well in wells of a 24-well culture dish in the same culture medium. One day later, cells are washed and the DMEM culture medium is replaced with Keratinocyte Basal Medium (KBM).
This assay is similar to the fibroblast cytotoxicity assay except that the human dermal fibroblasts are plated in culture medium (KBM) supplemented with a concentration of calcium (1.5 mM) that supports survival on its own. The biologically active retinoids are included in the culture medium and the cells incubated for 72 hours. Under such conditions, there is little net increase in growth with added retinoid, and at high concentrations, cytotoxicity occurs (see, e.g., Varani, J., et al., J. Invest. Dermatol. 101:839-842).
That is, there was little decline in cell numbers compared to control with retinoid concentrations up to 5 μg/mL.

[1] = Rhino mouse topical treatment: spleen size; type: in vivo; details: 0.1% topical, 21 days
Excerpt: Mouse skin is rather thinner than human skin, and topically applied drugs tend to get into the circulation more readily when applied to mice, especially the hairless mutants, than to humans.

[2] = system: NB4 cells (PML cell line); test: NB4 cell differentiation (morphology, phase contrast); type: cell-based; details: 50 μg/mL, 48 hours
Description: FIGS. 8A & FIG. 8B: Morphological change with Compound 2. Control NB4 cells are shown after 48 hours incubation in culture medium in FIG. 8A.
Concentration-dependent and time-dependent growth inhibition studies were carried out in vitro. Cells were plated in wells of a 24-well dish at 5×10^4 cells per well in maintenance media (DMEM+2% fetal bovine serum. Each of the experimental retinoids were added at the desired concentrations and the cells incubated for 3 days. At the end of the incubation period, cells were counted using an electronic particle counter. Viability was determined by exclusion of trypan blue. To assess differentiation, cells were treated for three days with either the desired agent (or control) in culture medium. At the end of the incubation period, the cells were photographed under phase-contrast microscopy.
Inhibition could be seen at both 48 and 72 hours of incubation. […] The polarized, flattened morphology is evidence of differentiation. These studies, thus, indicate that the experimental retinoids have potential as anti-cancer agents.

Row | SMILES | fibroblast cytotoxicity (decline in cell numbers compared to control) (human dermal fibroblasts) | spleen size (splenomegaly) [1] | morphological change (evidence of differentiation) [2]
1 | CC1=C(/C=C/C(C)=C/C=C/C(C)=C/C(=O)O)C(C)(C)CCC1 [ATRA, all-trans retinoic acid, reference compound] | lack of fibroblast cytotoxicity at concentrations as high as 5 μg/mL | very marked splenomegaly | –
2 | CC1=C(/C=C/C(C)=C\C=C\C(C)=C\C(=O)N(C)CC(=O)c2ccccc2)C(C)(C)CCC1 [Example 2, (2E,4E 6Z,8E)-N,3,7-trimethyl—N-(2-oxo-2-phenylethyl)-9-(2,6,6-trimethylcyclohex-1-en-1-yl)nona-2,4,6,8-tetraenamide] | – | – | polarized and flattened

Source: US11148998B2, “Dimethyl-nonatetraenyl-trimethyl-cyclohexyl compounds and uses thereof” (The Regents of the University of Michigan, priority 2017, dated 2021)
